# Test results: paper PMC8556085, “Antimicrobial and Antioxidant Secondary Metabolites from Trifolium baccarinii Chiov. (Fabaceae) and Their Mechanisms of Antibacterial Action” (BioMed Research International, 2021)
# Marks after values point to notes of the source that are not given here.
# Assays:
# [1] = test system: tested bacteria and yeasts; experiment: Broth microdilution MIC/MMC, summary over all strains; type: cell-based; details: against specific microorganism; cutoff points of ref 33
# Summary of the method: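 Twofold broth microdilution in MHB (bacteria) or SDB (yeasts), final range 2048–0.125 μg/mL. Inocula were 1 × 10^6 CFU/mL for bacteria, incubated at 37 °C for 24 h with shaking, and 1 × 10^5 spores/mL for yeasts (C. albicans 30 °C 48 h; C. neoformans 30 °C 72 h). MIC was the lowest concentration with no visible growth, in triplicate.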
# [2] = DPPH free radical scavenging assay; details: mean ± SD
# Description: The free radical scavenging activity of extracts and compounds was evaluated according to the described method. The EC50 (μg/mL), which is the amount of sample necessary to inhibit by 50% the absorbance of free radical DPPH, was calculated. Vitamin C was used as a standard control. All the analyses were carried out in triplicate and repeated three times.
# [3] = Gallic acid equivalent antioxidant capacity (GEAC) assay; details: ABTS radical, 420 nm, 240 s; mean ± SD
# Summary of the method: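 Purified Sclerotinia sclerotiorum laccase oxidises ABTS in acetate buffer pH 5.0 (100 mM); ABTS●+ read at 420 nm after 240 s. Samples at 10–800 μg/mL (extracts) or 12.5–200 μg/mL (isolated compounds) in assay. Values expressed as gallic acid equivalents from a 0–84 μM gallic acid calibration curve; triplicates, three repeats.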
# [4] = test system: Staphylococcus aureus; experiment: Loss of salt tolerance; type: cell-based; details: pretreatment 1/2xMIC, MIC, 2xMIC for 1 h; MHA-NaCl 50, 60, 70 g/L
# Description: (2) Loss of Salt Tolerance in Staphylococcus aureus. The ability of Staphylococcus aureus ATCC25923 and MRSA03 cells treated with the methanol extract and compound 5 to grow on Mueller-Hinton agar (MHA) supplemented with NaCl was investigated. In preliminary experiments, untreated suspensions of Staphylococcus aureus were plated on MHA supplemented with NaCl from 40 to 100 g/L. Plates were incubated. After incubation, the resulting colonies were counted. Concentrations of NaCl, 50, 60, and 70 g/L, which modestly compromised the colony-forming abilities of untreated microorganisms, were selected. For further experimentation steps, suspensions of bacteria were prepared as previously described and treated with the MeOH extract or compound 5 at 1/2xMIC, MIC, and 2xMIC. After 1 h incubation, samples were removed, serially diluted, and inoculated onto MHA and MHA-NaCl (50, 60, and 70 g/L). Bacterial culture without a sample was used as a control for each MHA-NaCl plate. Upon incubation, the numbers of CFU per milliliter on each MHA-NaCl plate were compared to those on the MHA plate, and the result was expressed as a percentage.
# [5] = test system: catalase; experiment: Catalase activity in treated bacterial cell lysates; type: cell-based; details: Staphylococcus aureus ATCC25923 and MRSA03, MIC and 1/2xMIC, 24 h
# Description: (3) Antioxidant Enzyme Activities. For evaluation of catalase and superoxide dismutase (SOD) activities, Staphylococcus aureus ATCC25923 and MRSA03 (1.5 × 10^8 CFU/mL, 500 μL) cultures from the late exponential growth phase were treated with MIC and 1/2xMIC of the methanol extract (500 μL), compound 5 (500 μL), and oxacillin (500 μL) solutions and incubated at 37°C for 24 h. The suspension was centrifuged at 3000 rpm for 5 min to separate the supernatant. The pellet was washed twice with PBS and resuspended in 500 μL of cell lysate buffer (1 mM EDTA, 10 Mm Tris-HCl, 0.1% Triton-X-100, and 150 mM NaCl) and incubated at 37°C for 1 h. Contents were then centrifuged at 3000 rpm for 5 min, and the supernatant was collected for enzyme activity assays.
# Catalase activity. This was assessed by using a kit (Sigma, catalogue no. CAT100) with a cell lysate. Briefly, 750 μL of assay buffer (50 mM) was mixed with 25 μL of 50 mM H2O2 and 10 μL of cell lysate. […] The absorbance was monitored at 520 nm, and the catalase activity was calculated based on the following equation: [Δμ moles (H2O2) × d × 100)/V × t], where Δμ moles (H2O2) is the difference in amount of H2O2 added to the reaction mixture between blank and given samples, d is the dilution of the original sample for catalase reaction, V is the sample volume in catalase reaction, and t is the reaction duration (min).
substance,measurement,setting,value
"4,7,2′-trihydroxy-4′-methoxyisoflavanol [compound 5]",antimicrobial activity class of pure compounds by cutoff points,[1],significant/moderate
same,DPPH free radical scavenging activity (EC50),[2],11.58 ± 0.73^f μg/mL
same,Gallic acid equivalent antioxidant capacity (GEAC),[3],61.05 ± 0.90^h μg/mL
same,number of colony-forming units on NaCl-supplemented media after pretreatment,[4],significant decrease
same,catalase activity vs untreated cell lysates,[5],significant concentration-dependent decreases
